Data: ChEMBL document CHEMBL5291721, “A preclinical secondary pharmacology resource illuminates target-adverse drug reaction associations of marketed drugs” (Nat Commun, 2023)

Legend:
Progesterone receptor = target: T1, Progesterone receptor (Homo sapiens, UniProt P06401); type: functional
T1 sequence (P06401 whole entry): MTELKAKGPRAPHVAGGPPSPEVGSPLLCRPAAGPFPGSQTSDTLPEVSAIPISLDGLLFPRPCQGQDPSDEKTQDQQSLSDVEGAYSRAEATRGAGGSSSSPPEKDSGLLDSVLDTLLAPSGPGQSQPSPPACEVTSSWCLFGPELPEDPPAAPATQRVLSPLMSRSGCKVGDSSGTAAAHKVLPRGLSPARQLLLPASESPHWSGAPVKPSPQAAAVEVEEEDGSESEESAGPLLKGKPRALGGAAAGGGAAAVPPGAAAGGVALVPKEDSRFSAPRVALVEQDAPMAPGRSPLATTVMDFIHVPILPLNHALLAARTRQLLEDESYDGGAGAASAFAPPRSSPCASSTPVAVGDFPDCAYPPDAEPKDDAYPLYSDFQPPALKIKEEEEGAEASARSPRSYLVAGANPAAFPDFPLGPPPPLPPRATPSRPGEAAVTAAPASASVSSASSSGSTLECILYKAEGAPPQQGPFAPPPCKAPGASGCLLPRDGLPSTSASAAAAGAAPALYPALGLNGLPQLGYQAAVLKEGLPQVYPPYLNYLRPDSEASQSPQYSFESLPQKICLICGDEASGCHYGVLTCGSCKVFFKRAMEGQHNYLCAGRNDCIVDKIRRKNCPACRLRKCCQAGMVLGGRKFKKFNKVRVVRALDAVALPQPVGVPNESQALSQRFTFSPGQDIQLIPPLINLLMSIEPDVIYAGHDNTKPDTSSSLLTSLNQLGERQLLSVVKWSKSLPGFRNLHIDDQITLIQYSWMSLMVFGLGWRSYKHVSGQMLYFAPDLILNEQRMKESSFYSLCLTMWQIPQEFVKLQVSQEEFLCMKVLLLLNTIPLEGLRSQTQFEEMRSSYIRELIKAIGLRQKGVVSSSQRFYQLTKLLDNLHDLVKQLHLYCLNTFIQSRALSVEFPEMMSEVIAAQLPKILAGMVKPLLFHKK

[1] = target: Prostaglandin G/H synthase 1 (Homo sapiens, UniProt P23219); type: functional
[2] = target: T2, Neuropeptide Y receptor type 1 (Homo sapiens, UniProt P25929)
T2 sequence (P25929 whole entry): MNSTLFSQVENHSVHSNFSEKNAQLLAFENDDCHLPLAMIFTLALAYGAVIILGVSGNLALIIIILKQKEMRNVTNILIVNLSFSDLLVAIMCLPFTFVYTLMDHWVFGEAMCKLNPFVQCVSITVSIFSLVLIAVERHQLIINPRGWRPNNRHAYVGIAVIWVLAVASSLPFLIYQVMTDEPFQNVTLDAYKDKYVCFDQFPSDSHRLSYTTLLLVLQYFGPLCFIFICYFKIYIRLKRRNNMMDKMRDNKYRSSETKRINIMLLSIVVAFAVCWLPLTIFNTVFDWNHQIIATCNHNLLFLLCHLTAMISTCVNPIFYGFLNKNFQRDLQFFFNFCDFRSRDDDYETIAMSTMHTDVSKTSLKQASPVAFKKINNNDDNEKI

Adenosine receptor A1 = target: T3, Adenosine receptor A1 (Homo sapiens, UniProt P30542)
T3 sequence (P30542 whole entry): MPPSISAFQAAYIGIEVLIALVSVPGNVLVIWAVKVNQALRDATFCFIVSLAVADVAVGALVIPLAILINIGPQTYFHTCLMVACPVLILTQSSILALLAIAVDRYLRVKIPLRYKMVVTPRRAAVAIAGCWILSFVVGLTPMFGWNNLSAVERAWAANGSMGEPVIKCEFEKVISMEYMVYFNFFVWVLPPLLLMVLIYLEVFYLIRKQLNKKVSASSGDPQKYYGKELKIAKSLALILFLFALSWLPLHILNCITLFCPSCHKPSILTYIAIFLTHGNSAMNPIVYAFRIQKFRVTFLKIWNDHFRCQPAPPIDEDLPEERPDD

[3] = target: T4, Alpha-2A adrenergic receptor (Homo sapiens, UniProt P08913); type: functional, cell-based
T4 sequence (P08913 whole entry): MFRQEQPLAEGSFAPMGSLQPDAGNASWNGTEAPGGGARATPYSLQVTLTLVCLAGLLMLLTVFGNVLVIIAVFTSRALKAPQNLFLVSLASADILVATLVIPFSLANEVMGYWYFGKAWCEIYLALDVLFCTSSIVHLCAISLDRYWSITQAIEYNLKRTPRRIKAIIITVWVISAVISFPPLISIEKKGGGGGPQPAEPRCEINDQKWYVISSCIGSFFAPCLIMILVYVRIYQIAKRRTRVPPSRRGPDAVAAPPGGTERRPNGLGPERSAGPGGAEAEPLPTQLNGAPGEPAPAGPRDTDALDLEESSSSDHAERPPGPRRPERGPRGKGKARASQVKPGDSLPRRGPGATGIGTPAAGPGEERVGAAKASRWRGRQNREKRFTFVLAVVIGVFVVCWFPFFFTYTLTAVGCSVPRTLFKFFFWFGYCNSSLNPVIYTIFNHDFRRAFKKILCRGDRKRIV
Further: assay procedure not described here.

Sequence of Prostaglandin G/H synthase 1 (P23219 whole entry): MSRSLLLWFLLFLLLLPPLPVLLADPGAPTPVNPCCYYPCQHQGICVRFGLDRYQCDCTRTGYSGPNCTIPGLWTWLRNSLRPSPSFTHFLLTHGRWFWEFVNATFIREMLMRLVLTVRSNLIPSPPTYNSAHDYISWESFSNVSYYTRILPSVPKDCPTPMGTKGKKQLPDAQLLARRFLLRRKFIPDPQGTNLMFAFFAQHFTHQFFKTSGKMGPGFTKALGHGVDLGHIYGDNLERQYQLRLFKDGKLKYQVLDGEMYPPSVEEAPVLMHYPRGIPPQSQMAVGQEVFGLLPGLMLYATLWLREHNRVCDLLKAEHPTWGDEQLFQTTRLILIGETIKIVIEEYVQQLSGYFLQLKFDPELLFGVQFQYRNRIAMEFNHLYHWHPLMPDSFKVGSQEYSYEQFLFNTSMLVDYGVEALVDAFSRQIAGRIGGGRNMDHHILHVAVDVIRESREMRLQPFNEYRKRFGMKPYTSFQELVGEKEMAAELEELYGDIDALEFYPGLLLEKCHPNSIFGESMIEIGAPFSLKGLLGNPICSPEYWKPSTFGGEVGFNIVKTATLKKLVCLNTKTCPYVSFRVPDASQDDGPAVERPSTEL

COC(=O)[C@H]1[C@H]2C[C@@H]3c4[nH]c5cc(OC)ccc5c4CCN3C[C@H]2C[C@@H](OC(=O)c2cc(OC)c(OC)c(OC)c2)[C@@H]1OC [RESERPINE]
AC50 (Progesterone receptor): > 10 µM
AC50 [1]: > 30 µM
AC50 [2]: > 10 µM
AC50 (Adenosine receptor A1): > 30 µM
AC50 [3]: > 10 µM

C[C@@H]1C[C@H]2[C@@H]3C[C@H](F)C4=CC(=O)C=C[C@]4(C)[C@@]3(F)[C@@H](O)C[C@]2(C)[C@@]1(OC(=O)c1ccco1)C(=O)SCF [FLUTICASONE FUROATE]
AC50 [1]: 9.89 µM
AC50 [2]: > 10 µM
AC50 (Adenosine receptor A1): > 10 µM
AC50 [3]: > 10 µM

O=C(CCC/C=C\C[C@@H]1[C@@H](CC[C@@H](O)CCc2ccccc2)[C@H](O)C[C@@H]1O)OCCCCO[N+](=O)[O-] [LATANOPROSTENE BUNOD]
AC50 [1]: 13.5 µM

NC[C@H]1CC[C@H](C(=O)Oc2ccc(CCC(=O)O)cc2)CC1 [CETRAXATE]
AC50 [1]: > 30 µM
AC50 [3]: > 30 µM

CC(=O)OC[C@H]1O[C@@H](n2ncc(=O)[nH]c2=O)[C@H](OC(C)=O)[C@@H]1OC(C)=O [AZARIBINE]
AC50 [1]: > 30 µM

CC(O)(CS(=O)(=O)c1ccc(F)cc1)C(=O)Nc1ccc(C#N)c(C(F)(F)F)c1 (stereo not drawn) [BICALUTAMIDE]
AC50 (Progesterone receptor): > 30 µM
AC50 [1]: > 30 µM
AC50 [2]: > 30 µM
AC50 (Adenosine receptor A1): > 30 µM
AC50 [3]: > 10 µM

COc1cccc(C(=O)CCN[C@@H](C)[C@H](O)c2ccccc2)c1 [OXYFEDRINE]
AC50 [1]: > 30 µM

CCCSc1nc(N[C@@H]2C[C@H]2c2ccc(F)c(F)c2)c2nnn([C@@H]3C[C@H](OCCO)[C@@H](O)[C@H]3O)c2n1 [TICAGRELOR]
AC50 [1]: 26.2 µM

C[C@H](N[C@@H](CCc1ccccc1)C(=O)O)C(=O)N1Cc2ccccc2C[C@H]1C(=O)O
AC50 [1]: > 30 µM

N#Cc1ccc(Oc2ccc3c(c2)COB3O)cc1 [CRISABOROLE]
AC50 [1]: > 30 µM

CC(COc1ccccc1)NC(C)C(O)c1ccc(O)cc1 (stereo not drawn) [ISOXSUPRINE]
AC50 [1]: > 30 µM

Cc1cn([C@H]2O[C@@H](CO)[C@H](O)[C@H]2F)c(=O)[nH]c1=O [CLEVUDINE]
AC50 [1]: > 30 µM

COc1ccc2c(C(=S)N(C)CC(=O)O)cccc2c1C(F)(F)F [TOLRESTAT]
AC50 [1]: > 30 µM

CC[N+](C)(CC)CCOC(=O)C(O)(c1ccccc1)C1CCCCC1 (stereo not drawn) [OXYPHENONIUM]
AC50 [1]: > 30 µM

C[C@@H]1C[C@H]2[C@@H]3C[C@H](F)C4=CC(=O)C=C[C@]4(C)[C@H]3[C@@H](O)C[C@]2(C)[C@@]1(O)C(=O)CO [PARAMETHASONE]
AC50 [1]: > 30 µM

COc1ccc(OC)c(C(O)C(C)N)c1 (stereo not drawn) [METHOXAMINE]
AC50 [1]: > 30 µM

CCC[C@H](N[C@@H](C)C(=O)N1[C@H](C(=O)O)C[C@@H]2CCCC[C@@H]21)C(=O)OCC [PERINDOPRIL]
AC50 [1]: > 30 µM

CC(=O)O[C@]1(C(C)=O)CC[C@H]2[C@@H]3C=C(Cl)C4=CC(=O)[C@@H]5C[C@@H]5[C@]4(C)[C@H]3CC[C@@]21C [CYPROTERONE ACETATE]
AC50 [1]: > 30 µM
AC50 [2]: > 30 µM
AC50 (Adenosine receptor A1): > 30 µM

CC(=O)[C@H]1CC[C@H]2[C@@H]3C=CC4=CC(=O)CC[C@@]4(C)[C@@H]3CC[C@]12C [DYDROGESTERONE]
AC50 [1]: > 30 µM

Clc1ccc(C(Cn2ccnc2)OCc2csc3c(Cl)cccc23)c(Cl)c1 (stereo not drawn) [SERTACONAZOLE]
AC50 [1]: 5.34 µM

CC1(C)S[C@@H]2[C@H](/N=C/N3CCCCCC3)C(=O)N2[C@H]1C(=O)O [AMDINOCILLIN]
AC50 [1]: > 30 µM

CC1(CCN2CCCCC2)C(=O)CCc2ccccc21 (stereo not drawn) [NEPINALONE]
AC50 [1]: > 30 µM

C=C1CC[C@H](O)C/C1=C/C=C1\CCC[C@]2(C)[C@@H]([C@H](C)CCCC(C)C)CC[C@@H]12 [CHOLECALCIFEROL]
AC50 [1]: 12.3 µM

O=S1(=O)CCN(CN2CCS(=O)(=O)NC2)CN1 [TAUROLIDINE]
AC50 (Progesterone receptor): > 30 µM
AC50 [1]: > 30 µM
AC50 [3]: > 30 µM

O=C(/C=C/c1cccc(S(=O)(=O)Nc2ccccc2)c1)NO [BELINOSTAT]
AC50 [1]: 6.9 µM
AC50 [2]: > 30 µM
AC50 (Adenosine receptor A1): > 30 µM

CC(C)(C)NC(=O)N[C@H](C(=O)N1C[C@H]2[C@@H]([C@H]1C(=O)NC(CC1CCC1)C(=O)C(N)=O)C2(C)C)C(C)(C)C (stereo partly drawn) [BOCEPREVIR]
AC50 [1]: > 30 µM

Cc1ncc2c(c1O)COC2c1ccc(Cl)cc1 (stereo not drawn) [CICLETANINE]
AC50 [1]: > 30 µM

Cc1ccc(S(=O)(=O)NC(=O)NC2CCCCC2)cc1 [GLYCYCLAMIDE]
AC50 [1]: > 30 µM

CC(=O)O[C@H]1Cc2ccccc2N(C(N)=O)c2ccccc21 [ESLICARBAZEPINE ACETATE]
AC50 [1]: > 30 µM

COC(=O)C[C@](O)(CCCC(C)(C)O)C(=O)O[C@@H]1C(OC)=C[C@]23CCCN2CCc2cc4c(cc2[C@H]13)OCO4 [OMACETAXINE MEPESUCCINATE]
AC50 [1]: > 30 µM

CCCn1cnc2c1c(=O)n(CCCCC(C)=O)c(=O)n2C [PROPENTOFYLLINE]
AC50 [1]: > 30 µM

CC(O)(P(=O)(O)O)P(=O)(O)O [ETIDRONIC ACID]
AC50 [1]: > 30 µM

Cc1ccc(C(=O)C(C)CN2CCCCC2)cc1 (stereo not drawn) [TOLPERISONE]
AC50 [1]: > 30 µM

CC(=O)OCC(=O)[C@@]1(O)CC[C@H]2[C@@H]3CCC4=CC(=O)CC[C@]4(C)[C@H]3[C@@H](O)C[C@@]21C [HYDROCORTISONE ACETATE]
AC50 [1]: > 30 µM

O=C(O)[C@@H]1C[C@@H](O)CN1
AC50 [1]: > 30 µM

NNCCc1ccccc1 [PHENELZINE]
AC50 [1]: 0.5 µM

N[C@@H](Cc1ccccc1)C(=O)O [PHENYLALANINE]
AC50 [1]: > 30 µM

CC(=O)[C@]1(N)Cc2c(O)c3c(c(O)c2[C@@H](O[C@H]2C[C@H](O)[C@H](O)CO2)C1)C(=O)c1ccccc1C3=O [AMRUBICIN]
AC50 [1]: 2.81 µM

CN1CCCN(C(c2ccccc2)c2ccc(Cl)cc2)CC1 (stereo not drawn) [HOMOCHLORCYCLIZINE]
AC50 [1]: > 30 µM

Cc1cc2c(cc1S(N)(=O)=O)S(=O)(=O)CCC2
AC50 [1]: > 30 µM
